One experiment concerns human CXCR4. The experiment can be described thus: CXCL12-triggered CXCR4-specific signaling in yeast (lacZ read-out). It counts as cell-based. The procedure: Briefly, yeast transformants stably expressing human CXCR4 were grown overnight at 30 °C in yeast nitrogen base selective medium (Formedium, UK). Cells were diluted to an OD600 of 0.2 and grown to an OD600 of 0.3–0.6. […] OD600 was measured and activation of CXCR4 signaling quantified by β-galactosidase activity using a commercial BetaGlo Kit (Promega, Mannheim, Germany).

Experiment [1] relates to primary mouse spleen B lymphocytes. Description: MIF-triggered Transwell chemotaxis of primary splenic B cells.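 As to all read-outs here: migration tracked over 4 h at 37 °C, read out as transmigrated cells counted by flow cytometry with absolute counting beads.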 The class given is cell-based. As to conditions: for MIF-elicited chemotaxis: Suppl. Fig. 15b, individual replicates, n = 4.
Method: Briefly, splenic B cells were isolated by negative depletion using a Pan B Cell Isolation Kit (Miltenyi Biotec, Bergisch Gladbach, Germany). […] Chemotaxis was followed for 4 h at 37 °C in a humidified atmosphere of 5% CO2. Migrated cells were counted by flow cytometry using CountBright™ Absolute Counting Beads (Molecular Probes-Invitrogen).
Another experiment has as its system MonoMac-6 / HAoEC. Description: MIF-induced static adhesion of MonoMac-6 monocytes to HAoECs. The class given is cell-based, human. On the procedure: HAoECs were seeded at a density of 30,000 cells/well in 6 well µ-Ibidi Perfusion slides VI 0.4 (Ibidi GmbH). […] After perfusion of the chambers with fresh medium, MonoMac6 cells (1 × 10^6 cells mL^−1) in PromoCell medium were added for 30 min. Non-adhering cells were flushed away by gentle perfusion using a 30 mL syringe. To quantify adherent monocytes, seven individual images (technical triplicates each) from each treatment were acquired using a Leica DMi8 inverted microscope with a ×10 objective and cells quantified using ImageJ.

The subject of the next experiment is pAMPK/AMPK in HCM. The experiment can be described thus: MIF/CD74-triggered AMPK signaling in human cardiomyocytes (HCM). It counts as cell-based. On the procedure:
HCMs (2 × 10^5 per well) were plated in 12-well plates and maintained for 2 days with cultured medium containing 5% FCS. Before stimulation, medium was replaced by fresh myocyte basal medium containing 0.05% FCS and HCMs rested for 16 h. Surface CD74 expression on HCMs was verified by flow cytometry (FITC-conjugated anti-human CD74 (1:100 dilution), FITC-IgG2 (isotype control) (BD Pharmingen), 1 h/4 °C in the dark, BD FACSVerse™ flow cytometer, FlowJo software). […] After treatment, cells were lysed and subjected to SDS-PAGE (10%)/Western blotting using NuPAGE® lithium dodecyl sulfate (LDS)/dithiothreitol (DTT) lysis buffer-containing PhosSTOP^TM reagent (Roche Applied Science). […] Anti-rabbit horse-radish peroxidase (HRP)-conjugated antibody (1:10000, GE Healthcare, Freiburg, Germany) was used for development and signals quantitated by chemiluminescence using an Odyssey® Fc imager. Unprocessed scans of the Western blots are supplied in the Source Data file.

Molecules are shown by their SMILES. Values joined by “and” are separate entries in the source; they are usually repeats but may differ in a detail not shown here. Equal values may be shown once.

On to `CC[C@H](C)[C@H](NC(=O)[C@H](Cc1ccc(O)cc1)NC(=O)[C@H](CCCNC(=N)N)NC(=O)[C@H](CC(=O)O)NC(=O)CCCCCCCCCCCNC(=O)CCCCCNC(=O)[C@H](CCCCN)NC(=O)[C@H](CS)NC(=O)[C@H](CC(C)C)NC(=O)[C@H](Cc1ccccc1)NC(=O)[C@H](CC(N)=O)NC(=O)CNC(=O)[C@H](Cc1ccccc1)NC(=O)[C@H](Cc1ccc(O)cc1)NC(=O)[C@H](Cc1c[nH]c2ccccc12)NC(=O)[C@H](CC(N)=O)NC(=O)[C@H](C)NC(=O)[C@@H](NC(=O)[C@H](C)NC(=O)[C@@H](N)CC(=O)O)C(C)C)C(=O)N[C@@H](CS)C(=O)N[C@@H](CC(=O)O)C(=O)N[C@@H](CCCNC(=N)N)C(=O)N[C@@H](Cc1ccccc1)C(=O)N[C@@H](Cc1ccc(O)cc1)C(=O)N1CCC[C@H]1C(=O)N[C@@H](CC(N)=O)C(=O)N[C@@H](CC(=O)O)C(=O)N[C@@H](CC(C)C)C(=O)N[C@@H](Cc1c[nH]c2ccccc12)C(=O)N[C@H](C(N)=O)C(C)C` [msR4M-L1, CXCR4-ECL1[97–110]-6-Ahx-12-Ado-ECL2[182–196]], for which the “effect on CXCL12/CXCR4-elicited signaling” value in the experiment with human CXCR4 was “remained unaffected”. The “inhibition of MIF-mediated B-cell chemotaxis” value in experiment [1] (16 nM MIF, peptide at 5-fold molar excess (80 nM)) is recorded as “fully blocked”. Moreover, the MIF-elicited chemotaxis is 1.49 and 1 and 1.46 and 1.55 in experiment [1] (log(msR4M-L1) (M) = -6.495); 1.24 and 1.03 and 1.49 and 1.3 in experiment [1] (log(msR4M-L1) (M) = -6.796); 1.2 (3×) and 1.12 in experiment [1] (log(msR4M-L1) (M) = -7.097); 1.18 and 1.24 and 2 and 1.77 in experiment [1] (log(msR4M-L1) (M) = -7.495); 1.67 (2×) and 2.32 and 1.89 in experiment [1] (log(msR4M-L1) (M) = -7.796); 2.52 and 2.18 and 3 and 2.83 in experiment [1] (log(msR4M-L1) (M) = -10). Further, the “effect on MIF-induced static monocyte adhesion, TNF-α-prestimulated HAoECs” value in the experiment with MonoMac-6 / HAoEC (40 pM TNF-α pre-treatment, 320 nM msR4M-L1) is “abrogated the effect of MIF”. For the same compound, the “effect on MIF-induced static monocyte adhesion, resting HAoECs” value in the experiment on MonoMac-6 / HAoEC (16 nM MIF, 320 nM msR4M-L1, 16 h) is “blocked the pro-adhesion effect of MIF”. In addition, the “Fig. 5a, MIF-induced monocyte adhesion” value with MonoMac-6 / HAoEC (MIF + msR4M-L1, individual replicates, n = 4) was 56.3 and 56.9 and 61.4 and 42.3. Besides, in the experiment on pAMPK/AMPK in HCM, the “effect on MIF-upregulated pAMPK levels” value is given as “not attenuated”.

Source of the values: publication PMC7689490, “Designed CXCR4 mimic acts as a soluble chemokine receptor that blocks atherogenic inflammation by agonist-specific targeting” (Nature Communications, 2020).
